According to patent US20140088306A1, “RADIOACTIVE FLUORINE-LABELED QUINOXALINE COMPOUND” (Nihon Medi-Physics Co., Ltd., priority 2012, published 2014):

Legend:
[1] = In vivo radioactivity distribution experiment (Example 8); details: ddY mice, tail vein, SD in parenthesis
Procedure: Through the tail vein of ddY mice (male, 5 week-old) was injected each of a 10 volume % ethanol-containing saline solution of [^18F]E3 (45.4 kBq, 100 μL), a 10 volume % ethanol-containing saline solution of [^18F]D3 (38.2 kBq, 100 μL), a 10 volume % ethanol-containing saline solution of [^18F]E1 (45.1 kBq, 100 μL), and a 10 volume % ethanol-containing saline solution of [^18F]E2 (40.6 kBq, 100 μL). Five mice were used for each group and sacrificed 2, 10, 30, and 60 minutes after administration to remove major organs. The blood and organs were weighed and further measured for radioactivity using a γ counter. The amount of radioactivity per unit mass was measured in each organ to evaluate radioactivity distribution.

[2] = system: amyloid plaques in the brain; assay: Ex vivo autoradiography using Alzheimer's disease model mouse (Example 9); assay type: in vivo; details: Tg2576 mouse (24-month old) vs normal mouse; tail vein; 1 hour after administration
amyloid plaques in the brain, sequence (P05067 672-711 limits assumed): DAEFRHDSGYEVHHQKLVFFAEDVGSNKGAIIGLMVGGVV
Procedure: To confirm whether the compound 2 has the performance capable of visualizing amyloid plaques in the brain, an image was taken by ex vivo autoradiography in a Tg2576 mouse as one of Alzheimer's disease model animals.
[^18F]D3 (55.5 MBq (1.5 mCi)/200 μL) was administered to a Tg2576 mouse (24-month old, female) and a normal mouse (24-month old, female) through their tail vein. Each mouse was sacrificed 1 hour after administration, and the brain was removed, embedded in a carboxymethylcellulose solution, and frozen in a dry ice-hexane bath, followed by preparing frozen sections having a thickness of 30 μm using a cryostat (Leica). The resultant brain tissue sections were each placed on an imaging plate (Model BAS-SR, from Fujifilm Corporation) for 30 minutes for exposure, and the respective autoradiographs were obtained using an image analyzer (Bio Imaging Analyzer Model BAS5000, from Fujifilm Corporation). The same sections were each stained with thioflavin S ([…]), washed, and observed under a fluorescent microscope.

amyloid plaques = assay: Autoradiography using postmortem brain section of patient with Alzheimer's disease (Example 7); assay type: binding, human (Alzheimer's disease patient); details: brain section (temporal lobe) of Alzheimer's disease patient; 0.37 MBq/100 μL, 1 hour
amyloid plaques, sequence (P05067 672-711 limits assumed): as above
Procedure: A postmortem autopsy brain section (temporal lobe) of a patient with Alzheimer's disease was incubated together with each of [^18F]E3, [^18F]D3, [^18F]E1, and [^18F]E2 (0.37 MBq/100 μL each) at room temperature for 1 hour. The resultant was washed with a 50 volume % ethanol aqueous solution (2 minutes×2) and water (2 minutes×2), and after drying, the section was contacted with BAS imaging plate (from Fujifilm Corporation) for 1.5 hours. The image of autoradiography was obtained using BAS5000 scanner system (from Fujifilm Corporation).
A section adjacent to the brain section used was immunostained in the following manner.
First, a paraffin-embedded brain section of the Alzheimer's disease patient (temporal lobe, 6 μm in thickness) was incubated with xylene (15 minutes×2), ethanol (1 minute×2), a 90 volume % ethanol aqueous solution (1 minute×2), and a 70 volume % ethanol aqueous solution (1 minute×1) in that order for complete deparaffinization, and then washed in water (2.5 minutes×2). Thereafter, the section was subjected to autoclave treatment for 15 minutes in 0.01 mol/L citrate buffer solution (pH 6.0). The resultant was incubated in PBS-Tween20 (5 minutes×2), and a mouse anti-Aβ1-42 primary monoclonal antibody (from Wako Pure Chemical Industries Ltd.) was then added thereto, which was then incubated at room temperature overnight. The resultant was incubated in PBS-Tween20 (2 minutes×3), and a biotin-goat anti-mouse IgG (from Funakoshi Co., Ltd.) was then added thereto, which was then incubated at room temperature for 1 hour. The resultant was incubated in PBS-Tween20 (5 minutes×3), and a streptavidin-peroxidase complex (from Funakoshi Co., Ltd.) was added thereto, which was then incubated at room temperature for 30 minutes. In addition, the resultant was incubated in PBS-Tween20 (2 minutes×3); 3,3′-diaminobenzidine was added thereto, which was then incubated at room temperature for 30 minutes; and after washing with water, the section was observed under a microscope to provide an immunostained image (FIG. 10).

In the case of “4-(6-(2-[^18F]Fluoroethoxy)quinoxalin-2-yl)-N,N-dimethylaniline [[^18F]D3]”, the “Radioactivity Amount, Blood” value ([1]; 2 min. after) is reported as 2.66 (0.50) % injected dose/g, the “Radioactivity Amount, Blood” value ([1]; 10 min. after) is reported as 2.29 (0.25) % injected dose/g and the “Radioactivity Amount, Blood” value ([1]; 30 min. after) is reported as 2.98 (0.29) % injected dose/g. For the same substance, the “Radioactivity Amount, Blood” value ([1]; 60 min. after) was 3.26 (0.37) % injected dose/g, the “Radioactivity Amount, Bone” value ([1]; 2 min. after) was 2.65 (0.61) % injected dose/g and the “Radioactivity Amount, Bone” value ([1]; 10 min. after) was 2.75 (0.36) % injected dose/g. For the same substance, the “Radioactivity Amount, Bone” value ([1]; 30 min. after) was 2.82 (0.78) % injected dose/g, the “Radioactivity Amount, Bone” value ([1]; 60 min. after) was 2.77 (1.27) % injected dose/g and the “Radioactivity Amount, Brain” value ([1]; 2 min. after) was 5.67 (0.48) % injected dose/g. For the same substance, the “Radioactivity Amount, Brain” value ([1]; 10 min. after) was 6.39 (0.51) % injected dose/g, the “Radioactivity Amount, Brain” value ([1]; 30 min. after) was 3.73 (0.50) % injected dose/g and the “Radioactivity Amount, Brain” value ([1]; 60 min. after) was 2.61 (0.37) % injected dose/g. The “Radioactivity Amount, Heart” value ([1]; 2 min. after) was 8.50 (1.40) % injected dose/g, the “Radioactivity Amount, Heart” value ([1]; 10 min. after) was 4.19 (0.47) % injected dose/g and the “Radioactivity Amount, Heart” value ([1]; 30 min. after) was 3.29 (0.68) % injected dose/g. For the same substance, the “Radioactivity Amount, Heart” value ([1]; 60 min. after) was 3.74 (0.72) % injected dose/g, the “Radioactivity Amount, Intestine” value ([1]; 2 min. after) was 2.56 (0.10) % injected dose/g and the “Radioactivity Amount, Intestine” value ([1]; 10 min. after) was 5.27 (0.27) % injected dose/g. The “Radioactivity Amount, Intestine” value ([1]; 30 min. after) was 9.82 (1.43) % injected dose/g, the “Radioactivity Amount, Intestine” value ([1]; 60 min. after) was 12.3 (0.79) % injected dose/g and the “Radioactivity Amount, Kidney” value ([1]; 2 min. after) was 10.7 (0.96) % injected dose/g. The “Radioactivity Amount, Kidney” value ([1]; 10 min. after) was 6.66 (0.45) % injected dose/g, the “Radioactivity Amount, Kidney” value ([1]; 30 min. after) was 4.19 (0.78) % injected dose/g and the “Radioactivity Amount, Kidney” value ([1]; 60 min. after) was 3.30 (0.39) % injected dose/g. The “Radioactivity Amount, Liver” value ([1]; 2 min. after) was 10.3 (1.00) % injected dose/g, the “Radioactivity Amount, Liver” value ([1]; 10 min. after) was 9.83 (0.22) % injected dose/g and the “Radioactivity Amount, Liver” value ([1]; 30 min. after) was 6.91 (0.81) % injected dose/g. For the same substance, the “Radioactivity Amount, Liver” value ([1]; 60 min. after) was 6.65 (0.90) % injected dose/g, the “Radioactivity Amount, Lung” value ([1]; 2 min. after) was 8.94 (1.76) % injected dose/g and the “Radioactivity Amount, Lung” value ([1]; 10 min. after) was 4.59 (1.07) % injected dose/g. For the same substance, the “Radioactivity Amount, Lung” value ([1]; 30 min. after) was 3.51 (0.44) % injected dose/g, the “Radioactivity Amount, Lung” value ([1]; 60 min. after) was 3.39 (0.14) % injected dose/g and the “Radioactivity Amount, Pancreas” value ([1]; 2 min. after) was 6.55 (0.63) % injected dose/g. The “Radioactivity Amount, Pancreas” value ([1]; 10 min. after) was 4.74 (0.42) % injected dose/g, the “Radioactivity Amount, Pancreas” value ([1]; 30 min. after) was 2.73 (0.50) % injected dose/g and the “Radioactivity Amount, Pancreas” value ([1]; 60 min. after) was 2.74 (0.19) % injected dose/g. The “Radioactivity Amount, Spleen” value ([1]; 2 min. after) was 2.86 (0.66) % injected dose/g, the “Radioactivity Amount, Spleen” value ([1]; 10 min. after) was 4.09 (0.33) % injected dose/g and the “Radioactivity Amount, Spleen” value ([1]; 30 min. after) was 2.66 (0.57) % injected dose/g. For the same substance, the “Radioactivity Amount, Spleen” value ([1]; 60 min. after) was 3.07 (0.68) % injected dose/g, the “Radioactivity Amount, Stomach*” value ([1]; 2 min. after) was 1.09 (0.05) % injected dose per organ and the “Radioactivity Amount, Stomach*” value ([1]; 10 min. after) was 1.64 (0.28) % injected dose per organ. The “Radioactivity Amount, Stomach*” value ([1]; 30 min. after) was 1.98 (0.47) % injected dose per organ, the “Radioactivity Amount, Stomach*” value ([1]; 60 min. after) was 2.06 (0.46) % injected dose per organ and the “visualization of amyloid plaques in the brain, ex vivo autoradiography” value [2] was “could visualize amyloid plaques in the brain”. The “visualization of gray matter / amyloid plaques by autoradiography” value (amyloid plaques) was “amyloid plaques were visualized”.
